≈ marks a conversion by molar mass, not a printed value.
Tests used:
[1] = system: 21MT-1 metastatic breast cancer cells; experiment: Doxorubicin potency assay (MTT); type: cell-based, human; conditions: DOX concentration, 24 hours
Procedure: The DOX concentration lethal to 50% of the 21MT-1 cells (LC50) was determined utilizing the MTT (3-(4,5-[…])2,5-diphenyl tetrazolium bromide) assay kit from Life Technologies (Carlsbad, Calif., USA). This colorimetric assay assesses cell health as a function of the mitochondrial conversion of MTT salt to Formazan. A two-step procedure was implemented for precise loading of DOX into the HALNPs and then into the HALNP-PEM platform.
First a solution of […] of DOX in 0.05×PBS was used to rehydrate a lyophilized vial of HALNPs and excess (un-encapsulated) DOX was removed using ultracentrifugation (140,000 g, 1.25 hrs, 4° C.). […] The initial vial of HALNPs (1 mg Total Lipid) concentration was known, thus both the total amount of encapsulated DOX and lipid were fully determined. […]
21MT-1 cells were seeded at a density of 32,000 cells/well in three 48 well plates with different DOX configurations: 1) PEM platform with embedded HALNPDOX [(PLL/SPS)4.5(HALNPDOX)(PLL/SPS)2.5], 2) Bolus form HALNPDOX, and 3) free non-encapsulated DOX. […] Cells were then lysed with lysis buffer (acidified IPA) and the absorbance was measured at 570 and 620 nm using a Beckman Coulter AD340 plate reader (Indianapolis, Ind., USA). Percent viability was determined by normalization of the 570/620 absorbance ratio to the control untreated cells and positive control dead cells.

[2] = system: MG; experiment: DOX potency assay (MTT); type: cell-based, mouse; conditions: DOX concentration, 24-hour incubation
Procedure: (§1) Encapsulation of DOX into HALNPs Doxorubicin (DOX) was encapsulated inside the aqueous core of the HALNPs as described above and in Hayward et al, Sci. Rep. 2015, 5:14683. Briefly, a vial of lyophilized HALNPs (0.5 mg lipid) was brought to room temperature, and rehydrated with 1/10th its original pre-lyophilized volume of 0.05×PBS containing 250 μg DOX. Following a thirty minute incubation time to allow for lipid membrane re-assembly, the vial was brought back to its full pre-lyophilized volume with 1×PBS and ultracentrifuged to remove non-encapsulated DOX (140,000 g, 4° C., and 1.25 hr.). The auto-fluorescent property of DOX was then used to determine the entrapment payload. […]
(§2) To determine the effect of free DOX and HALNPDOX on the cell viability of Cort Astro, MG and A172 cells, an MTT assay was utilized as described herein to calculate the lethal concentration to kill 50% of the cells (see also, e.g., Hayward et al, Sci. Rep. 2015, 5:14683; Wilson et al, Nanoscale, 2015, 7:18477-18488; Natarajan et al, PLOS One, 2015, 10:e0134541). […] The cells were then lysed with acidified IPA and the absorbance of the produced formazan crystals was measured using a Beckman Coulter AD340 plate reader (Indianapolis, Ind., USA). Percent viability was determined by normalization of the 570/620 absorbance ratio to the control untreated cells and positive control dead cells (ethanol treated).

[3] = system: A172; experiment: DOX potency assay (MTT); type: cell-based; conditions: DOX concentration, 24-hour incubation
Procedure: as §1, §2

[4] = system: Cort Astro; experiment: DOX potency assay (MTT); type: cell-based, rat; conditions: DOX concentration, 24-hour incubation
Procedure: as §1, §2

## COc1cccc2c1C(=O)c1c(O)c3c(c(O)c1C2=O)C[C@@](O)(C(=O)CO)C[C@@H]3O[C@H]1C[C@H](N)[C@H](O)[C@H](C)O1 [Free DOX, doxorubicin]
[1]
  LC50: 0.191 ± 0.0301 µg/mL (≈ 0.351 µM)
[2]
  LC50 values: 0.267 ± 0.050 µg/mL (≈ 0.491 µM)
[3]
  LC50 values: 0.193 ± 0.030 µg/mL (≈ 0.355 µM)
[4]
  LC50 values: 0.322 ± 0.053 µg/mL (≈ 0.592 µM)
